The results in this text go back to the supplement of paper PMC9763283.

What all share (assay): area under growth-rate inhibition curve (AUC GRI) (dimensionless (GR-based AUC)); higher = less growth inhibition
Holding throughout (details): exposure time: 72 h; concentrations: 0.1, 1, 10 uM

The subject of test [1] is MDA-MB-231. The procedure, abridged:
(§1)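 Six breast cancer cell line models (two triple-negative lines, plus parental and lapatinib + trastuzumab-resistant HER2+ lines) were plated at optimised log-phase densities and exposed to compound at 0.1, 1 or 10 µM for 72 h. Cells were fixed in 4% paraformaldehyde, and nuclei were stained with Hoechst 33342 or DAPI, imaged and counted. Area under the growth-rate inhibition curve came from 2 biological replicates, with growth corrected using Day 0 plates, untreated Day 3 plates and DMSO controls.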

Test [2] has as its system SKBR3-LTR. An outline of the steps:
as §1

Test [3] relates to SKBR3-P. An outline of the steps: as §1
The test system of test [4] is MDA-MB-468. An outline of the steps: as §1
The subject of test [5] is BT474-LTR. An outline of the steps:
as §1

For test [6], the system named is BT474-P. An outline of the steps: as §1

“And” between values parts separate entries of the source, which are not always exact repeats. Identical values can stand only once.

As for `COc1ccccc1Oc1c(NS(=O)(=O)c2ccc(C(C)(C)C)cc2)nc(-c2ncccn2)nc1OCCO.O` [Bosentan Hydrate], the “area under growth-rate inhibition curve” value in test [1] is 1.04; in test [2], 1.06; in test [3], 1.01; in test [4] it was 1.01; in test [5], 1.09; in test [6], 1.04.
For the molecule `COc1ccccc1Oc1c(NS(=O)(=O)c2ccc(C(C)(C)C)cc2)nc(-c2ncccn2)nc1OCCO` [Bosentan], the “area under growth-rate inhibition curve” value was 1.03 in test [1]; 1.05 in test [2]; 1.02 in test [3]; 1.03 in test [4]; 1.08 in test [5]; 1.03 in test [6].
In the case of `Oc1ccc2ccc(OCCCCN3CCN(c4cccc5sccc45)CC3)cc2n1` [Brexpiprazole], the “area under growth-rate inhibition curve” value in test [1] worked out at 1; in test [2], 1.02; in test [3], 1.03; in test [4] it was 0.99; in test [5], 1.05; in test [6], 1.04.
As to `CN(C)CCC(c1ccc(Br)cc1)c1ccccn1.O=C(O)/C=C\C(=O)O` (stereo not given) [Brompheniramine hydrogen maleate], the “area under growth-rate inhibition curve” value amounted to 1.03 in test [1]; 1.04 in test [2]; 0.998 in test [3]; 1.04 in test [4]; 1.09 in test [5]; 1.05 in test [6].
As for `CCCC1O[C@@H]2C[C@H]3[C@@H]4CCC5=CC(=O)C=C[C@]5(C)[C@H]4[C@@H](O)C[C@]3(C)[C@]2(C(=O)CO)O1` (stereo not given in full) [Budesonide], the “area under growth-rate inhibition curve” value came out at 0.971 in test [1]; 1.03 in test [2]; 0.912 in test [3]; 1.03 in test [4]; 0.98 in test [5]; 0.901 in test [6].
Regarding `CCCCN1CCCCC1C(=O)[NH2+]c1c(C)cccc1C.[Cl-]` (stereo not given) [Bupivacaine HCl], the “area under growth-rate inhibition curve” value in test [1] came to 1.04; in test [2] it was 1.1; in test [3] it was 1.06; in test [4], 1.07; in test [5], 1.12; in test [6], 1.1.
On to `O=C1CC2(CCCC2)CC(=O)N1CCCCN1CCN(c2ncccn2)CC1.[Cl-].[H+]` [Buspirone hydrochloride], for which the “area under growth-rate inhibition curve” value came to 1 in test [1]; 1.03 in test [2]; 1.01 in test [3]; 1.01 in test [4]; 1.02 in test [5]; 1.01 in test [6].
With `C=CCN1CC(C(=O)N(CCCN(C)C)C(=O)NCC)CC2c3cccc4[nH]cc(c34)CC21` (stereo not given) [Cabergoline], the “area under growth-rate inhibition curve” value in test [1] is 1.04; in test [2], 1.05; in test [3] it was 1.03; in test [4], 1.05; in test [5], 1.05; in test [6] it was 1.01.
In the case of `Cc1ccc(C2OC(CO)C(O)C(O)C2O)cc1Cc1ccc(-c2ccc(F)cc2)s1` (stereo not given) [Canagliflozin], the “area under growth-rate inhibition curve” value in test [1] was 1.02; in test [2] it was 1.05; in test [3] it was 1.03; in test [4], 1; in test [5], 1.07; in test [6] it was 1.02.
For the molecule `CN(C)C(=O)N[C@H]1CC[C@H](CCN2CCN(c3cccc(Cl)c3Cl)CC2)CC1` [Cariprazine], the “area under growth-rate inhibition curve” value in test [1] was found to be 1.02; in test [2] it was 1.05; in test [3] it was 1.01; in test [4], 1.02; in test [5] it was 1.04; in test [6] it was 1.02.
In the case of `CC(C)(C)NCC(O)COc1cccc2c1CCC(=O)N2.[Cl-].[H+]` (stereo not given) [Carteolol HCl], the “area under growth-rate inhibition curve” value was 1.04 in test [1]; 1.1 in test [2]; 1.04 in test [3]; 1.03 in test [4]; 1.11 in test [5]; 1.05 in test [6].
As for `COc1ccccc1OCCNCC(O)COc1cccc2[nH]c3ccccc3c12` (stereo not given) [Carvedilol], the “area under growth-rate inhibition curve” value was found to be 1.03 in test [1]; 1.07 in test [2]; 1 in test [3]; 0.937 in test [4]; 1.03 in test [5]; 0.957 in test [6].
For `O=C(O)COCCN1CCN(C(c2ccccc2)c2ccc(Cl)cc2)CC1.[Cl-].[Cl-].[H+].[H+]` (stereo not given) [Cetirizine DiHCl], the “area under growth-rate inhibition curve” value in test [1] is 1.02; in test [2], 1.03; in test [3] it was 0.997; in test [4] it was 1; in test [5], 1.07; in test [6] it was 1.03.
`COc1ccc(C(Cl)=C(c2ccc(OC)cc2)c2ccc(OC)cc2)cc1` [Chlorotrianisene]: the “area under growth-rate inhibition curve” value in test [1] turned out to be 1.01; in test [2], 1.05; in test [3] it was 0.987; in test [4] it was 1; in test [5], 1.08; in test [6], 0.983.
As to `CN(C)CCC(c1ccc(Cl)cc1)c1ccccn1.O=C(O)/C=C\C(=O)O` (stereo not given) [Chlorpheniramine Maleate], the “area under growth-rate inhibition curve” value turned out to be 1.03 in test [1]; 1.03 in test [2]; 1.01 in test [3]; 1.04 in test [4]; 1.12 in test [5]; 1.05 in test [6].
Consider `C[NH+](C)CCCN1c2ccccc2Sc2ccc(Cl)cc21.[Cl-]` [Chlorpromazine Hydrochloride], for which the “area under growth-rate inhibition curve” value in test [1] came to 0.985; in test [2] it was 1.02; in test [3], 0.994; in test [4] it was 0.989; in test [5], 0.991; in test [6] it was 1.
For the molecule `CN(C)CC/C=C1/c2ccccc2Sc2ccc(Cl)cc21` [Chlorprothixene], the “area under growth-rate inhibition curve” value in test [1] amounted to 1.02; in test [2] it was 1.03; in test [3], 0.97; in test [4] it was 0.931; in test [5], 1.01; in test [6], 0.997.
For the molecule `CC(C)C(=O)OCC(=O)[C@@]12O[C@H](C3CCCCC3)O[C@@H]1C[C@H]1[C@@H]3CCC4=CC(=O)C=C[C@]4(C)[C@H]3[C@@H](O)C[C@@]12C` [Ciclesonide], the “area under growth-rate inhibition curve” value in test [1] is 0.996; in test [2], 1.05; in test [3], 0.955; in test [4], 1.03; in test [5], 0.999; in test [6] it was 0.947.
On to `CC1(C)C[C@@H]1C(=O)N/C(=C\CCCCSC[C@H](N)C(=O)O)C(=O)[O-].[Na+]` [Cilastatin sodium], for which the “area under growth-rate inhibition curve” value in test [1] came out at 1; in test [2], 1.03; in test [3], 1.01; in test [4] it was 1.02; in test [5], 1.05; in test [6], 1.03.
For `CCOC(=O)[C@H](CCc1ccccc1)N[C@H]1CCCN2CCC[C@@H](C(=O)O)N2C1=O.O` [Cilazapril Monohydrate], the “area under growth-rate inhibition curve” value in test [1] is 1.03; in test [2], 1.07; in test [3], 1.04; in test [4], 1.04; in test [5], 1.1; in test [6] it was 1.04.
`O=C1CCc2cc(OCCCCc3nnnn3C3CCCCC3)ccc2N1` [Cilostazol]: the “area under growth-rate inhibition curve” value in test [1] was 1.05; in test [2], 1.06; in test [3], 1.03; in test [4] it was 1.03; in test [5], 1.04; in test [6], 1.
For the molecule `CNC(=NCCSCc1nc[nH]c1C)NC#N` [Cimetidine], the “area under growth-rate inhibition curve” value in test [1] was 1.04 and 1.05; in test [2], 1.05 and 1.06; in test [3] it was 1.02; in test [4], 1.04 and 1.03; in test [5], 1.05 and 1.12; in test [6], 1.02 and 1.06.
In the case of `C[C@@H](NCCCc1cccc(C(F)(F)F)c1)c1cccc2ccccc12.[Cl-].[H+]` [Cinacalcet HCl], the “area under growth-rate inhibition curve” value in test [1] is 0.931; in test [2], 0.883; in test [3], 0.909; in test [4], 0.896; in test [5], 0.922; in test [6] it was 0.9.
As for `O=C(O)C=CC(=O)O.O=C(c1ccc(OCCCc2c[nH]cn2)cc1)C1CC1` [Ciproxifan], the “area under growth-rate inhibition curve” value is 1.02 in test [1]; 1.07 in test [2]; 1.01 in test [3]; 0.991 in test [4]; 1.06 in test [5]; 0.976 in test [6].
For `COc1ccc(C[C@@H]2c3cc(OC)c(OC)cc3CC[N@+]2(C)CCC(=O)OCCCCCOC(=O)CC[N@@+]2(C)CCc3cc(OC)c(OC)cc3[C@H]2Cc2ccc(OC)c(OC)c2)cc1OC.O=S(=O)([O-])c1ccccc1.O=S(=O)([O-])c1ccccc1` [Cisatracurium Besylate], the “area under growth-rate inhibition curve” value in test [1] came to 0.997; in test [2] it was 1.01; in test [3] it was 0.961; in test [4], 0.988; in test [5], 1.01; in test [6] it was 0.998.
